Data taken from ChEMBL document CHEMBL4152281, “Synthesis, characterization and biological evaluation of tertiary sulfonamide derivatives of pyridyl-indole based heteroaryl chalcone as potential carbonic anhydrase IX inhibitors and anticancer agents” (Eur J Med Chem, 2018).

What was measured:
Carbonic anhydrase 9 = Carbonic anhydrase 9 (Homo sapiens, UniProt Q16790); assay: Inhibition of human carbonic anhydrase 9 expressed in Escherichia coli BL21 D3 strain using p-nitrophenyl acetate as substrate by UV/visible spectrophotometry
Carbonic anhydrase 2 = Carbonic anhydrase 2 (Homo sapiens, UniProt P00918); assay: Inhibition of human carbonic anhydrase 2 expressed in Escherichia coli BL21 D3 strain using p-nitrophenyl acetate as substrate by UV/visible spectrophotometry
HEK293 = assay: Antiproliferative activity against HEK293 cells after 48 hrs by MTT assay; format: cell-based; details: Homo sapiens, HEK293, 48 h
MCF7 [1] = assay: Antiproliferative activity against human MCF7 cells after 48 hrs by MTT assay; format: functional, cell-based
HepG2 = assay: Antiproliferative activity against human HepG2 cells after 48 hrs by MTT assay; format: functional, cell-based; details: HepG2, 48 h
MCF7 [2] = assay: Induction of apoptosis in human MCF7 cells assessed as early apoptotic cells at IC50 after 24 to 48 hrs by Annexin V-FITC/7-AAD dual staining based flow cytometry (reference value: 2.74%); format: functional
MCF7 [3] = assay: Induction of apoptosis in human MCF7 cells assessed as late apoptotic cells at IC50 after 24 to 48 hrs by Annexin V-FITC/7-AAD dual staining based flow cytometry (reference value: 1.14%); format: functional
MCF7 [4] = assay: Induction of apoptosis in human MCF7 cells assessed as viable cells at IC50 after 24 to 48 hrs by Annexin V-FITC/7-AAD dual staining based flow cytometry (reference value: 95.8%); format: functional
MCF7 [5] = assay: Induction of apoptosis in human MCF7 cells assessed as necrotic cells at IC50 after 24 to 48 hrs by Annexin V-FITC/7-AAD dual staining based flow cytometry (reference value: 0.20%); format: functional
[6] = Homo sapiens, MCF7, 48 h, read-out: IC50

Row | IC50 (Carbonic anhydrase 9) | IC50 (Carbonic anhydrase 2) | IC50 (MCF7 [1]; [6]) | IC50 (HepG2) | IC50 (MCF7 [1]; mcf7) | Structure (SMILES) | IC50 (HEK293) | Activity (MCF7 [2]) | Activity (MCF7 [3]) | Activity (MCF7 [4]) | Activity (MCF7 [5])
1 | 44.5 µM | > 100 µM | 52.4 µM | 46.2 µM |  | CCCS(=O)(=O)n1cc(/C=C/C(=O)c2ccncc2)c2ccccc21 | > 150 µM |  |  |  | 
2 |  |  | 45.3 µM | 49.3 µM |  | O=C(/C=C/c1c[nH]c2ccccc12)c1ccncc1 | > 150 µM |  |  |  | 
3 | 26.1 µM |  | 65.8 µM | 26 µM |  | COc1ccc(S(=O)(=O)n2cc(/C=C/C(=O)c3ccncc3)c3ccccc32)cc1 | > 150 µM |  |  |  | 
4 | 0.15 µM |  | 24 µM | 27 µM | Dose-dependent effect | CC(C)(C)c1ccc(S(=O)(=O)n2cc(/C=C/C(=O)c3ccncc3)c3ccccc32)cc1 | > 150 µM | 3.24% | 18.9% | 58.26% | 19.6%
5 | 14.4 µM |  | 37.5 µM | 35.1 µM |  | O=C(/C=C/c1cn(S(=O)(=O)c2ccc(Cl)cc2)c2ccccc12)c1ccncc1 | > 150 µM |  |  |  | 
6 | 0.15 µM |  |  |  |  | O=C(/C=C/c1cn(S(=O)(=O)c2ccc([N+](=O)[O-])cc2)c2ccccc12)c1ccncc1 |  |  |  |  | 
7 |  |  |  | 18.7 µM |  | COc1cccc2c1C(=O)c1c(O)c3c(c(O)c1C2=O)C[C@@](O)(C(=O)CO)C[C@@H]3O[C@H]1C[C@H](N)[C@H](O)[C@H](C)O1 [DOXORUBICIN] | 143 µM |  |  |  | 
8 | 0.13 µM |  | 12.2 µM | 14.8 µM | Dose-dependent effect | O=C(/C=C/c1cn(S(=O)(=O)c2ccc(Cl)cc2Cl)c2ccccc12)c1ccncc1 | > 150 µM | 78.8% | 10% | 10.6% | 0.53%
9 | 37.6 µM |  | 36.3 µM | 42.6 µM |  | O=C(/C=C/c1cn(S(=O)(=O)c2cccc([N+](=O)[O-])c2)c2ccccc12)c1ccncc1 | > 150 µM |  |  |  | 
10 | 29.9 µM |  | 48.9 µM | 44.8 µM |  | Cc1ccc(S(=O)(=O)n2cc(/C=C/C(=O)c3ccncc3)c3ccccc32)cc1 | > 150 µM |  |  |  | 
11 | 44.1 µM |  | 58 µM | 62.9 µM |  | O=C(/C=C/c1cn(S(=O)(=O)c2cccc3ccccc23)c2ccccc12)c1ccncc1 | > 150 µM |  |  |  | 
12 | 57.3 µM |  | 36.9 µM | 31.7 µM |  | O=C(/C=C/c1cn(S(=O)(=O)c2ccccc2[N+](=O)[O-])c2ccccc12)c1ccncc1 | > 150 µM |  |  |  | 
